Legend:
mice [1] = experiment: Cerebral protecting effects: acute global hypoxia (barometric depressurization to 160 mbar), cerebral survival time; type: in vivo; settings: 30 minutes before hypoxia; for increase in the survival time: male mice
Procedure: The cerebral survival time taken as the occurrence of the last respiratory gasp is measured in control animals and in animals that have received the compound under examination 30 minutes beforehand by the intraperitoneal route.

mice [2] = experiment: Psycho-awakening effect: sodium barbital (270 mg/kg i.p.) induced narcosis duration; type: in vivo; settings: 30 μmols/kg i.p.
Procedure: Male mice are administered sodium barbital by the i.p. route at a dose of 270 mg/kg. The duration of the narcosis so induced is compared between control animals and animals treated beforehand by the i.p. route with the compounds examined.

[3] = tested on: synaptosomal reuptake of noradrenaline (NAD); experiment: Synaptosomal reuptake of tritiated noradrenaline in vitro; type: biochemical; settings: 10^-6 M, synaptosomes, versus control preparation
Procedure: This effect was examined in the […] by measuring the synaptosomal reuptake of noradrenaline (NAD). For this, a fraction of synaptosomes is placed in the presence of tritiated NAD with or without previous incubation with the compound examined.
A measurement of the radioactivity in the synaptosomal pellet makes it possible to calculate the quantity of NAD reuptaken naturally by neurone endings. A compound inhibiting the reuptake reduces the radioactivity measured and a percentage inhibition is measured by comparison with a control preparation.

mice [4] = experiment: Cerebral protecting effects: acute global hypoxia (barometric depressurization to 160 mbar), cerebral survival time; type: in vivo; settings: 60 minutes before hypoxia
[5] = Lethal dose test with yohimbine (potentiation of yohimbine 30 mg/kg i.p.), percentage mortality; type: in vivo, mice; settings: mouse, in vivo; yohimbine lethality potentiation, mice; read-out: relationship between the mean effective p.o. and i.p. doses (oral bioavailability)
Procedure: (§1) Male mice are administered yohimbine (α2 antagonist) by the intraperitoneal route at a dose of 30 mg/kg, a non-lethal dose which only causes the occurrence of hyperexcitability symptoms or convulsions. Any compound that facilitates noradrenergic neurotransmission potentiates the releasing effect of the yohimbine and brings about the death of the animals.
(§2) A percentage mortality is thus measured for each group of animals treated 30 minutes beforehand i.p. or 60 minutes beforehand p.o. with the compound examined.

mice [6] = experiment: as above; type: in vivo; settings: 9 μmols/kg i.p., 30 minutes before yohimbine 30 mg/kg i.p.
Procedure: as §1, §2

mice [7] = experiment: Hypothermia with apomorphine (16 mg/kg i.p.); type: in vivo; settings: 30 minutes before apomorphine 16 mg/kg i.p.
Procedure: The administration of a very strong dose of apomorphine (16 mg/kg i.p.) causes hypothermia of approximately 4° C. by the stimulation of dopaminergic heteroreceptors situated on the noradrenergic neurones. The so-created hypothermia is thus due to the failure of noradrenergic neurotransmission. The facilitating agents administered 30 minutes beforehand counteract this hypothermia.

mice [8] = experiment: Hexobarbital (75 mg/kg i.p.) induced narcosis duration; type: in vivo
Procedure: This antagonism of barbital-induced narcosis reflects a psycho-awakening effect since no antagonism occurs when narcosis is induced with hexobarbital (75 mg/kg i.p.) (product of Example 2β:+20%; product of Example 1:+26%).

Question: For `c1cc2c(c(OCC3CNCCO3)c1)NCCC2` (racemic) [reference product, R,S-8-[(2-morpholinyl)methoxy]-1,2,3,4-tetrahydroquinoline, reference compound], which “increase in the survival time” value (mice [1]; 3 μmols/kg i.p.) is on record?
Answer: +5%

Question: What about the “increase in the survival time” value (mice [1]; 9 μmols/kg i.p.) of the same molecule?
Answer: +17%

Question: And the “increase in the survival time” value (mice [1]; 30 μmols/kg i.p.)?
Answer: +42%

Question: And the “increase in the survival time” value (mice [1]; 90 μmols/kg i.p.)?
Answer: +87%

Question: And the minimal effective dose (mice [1]; Mus musculus, ip, read-out: dose from which hypoxia is significantly counteracted (protecting effect obtained))?
Answer: 9 µmol/kg

Question: What about the “change in duration of narcosis with barbital” value (“change … with barbital” below) (mice [2]) of the same molecule?
Answer: -20%

Question: And the “inhibition of the reuptake of NAD” value [3]?
Answer: 33.6%

Question: What about the “increase in the survival time” value (mice [4]; 40 μmols/kg orally) of the same molecule?
Answer: 31%

Question: And the ratio of mean effective p.o. to i.p. dose [5]?
Answer: 4.25

Question: What about the mortality (mice [6]) of the same molecule?
Answer: +20%

Question: What about the “inhibiting effect vis-a-vis hypothermia” value (mice [7]; 3 μmols/kg) of the same molecule?
Answer: no effect

Question: And the “inhibiting effect vis-a-vis hypothermia” value (mice [7]; 9 μmols/kg)?
Answer: +0.5%

Question: For `Fc1cc2c(c(OCC3CNCCO3)c1)NCCC2` (racemic) [Example 1, R,S-6-fluoro-8-(2-morpholinylmethoxy)-1,2,3,4-tetrahydroquinoline], which “change … with barbital” value (mice [2]) is on record?
Answer: -36%

Question: And the “change in duration of narcosis induced with hexobarbital” value (mice [8])?
Answer: +26%

Question: And the “inhibiting effect vis-a-vis hypothermia” value (mice [7]; 3 μmols/kg)?
Answer: -27%

Question: What about the “inhibiting effect vis-a-vis hypothermia” value (mice [7]; 9 μmols/kg) of the same molecule?
Answer: -46%

Question: For `Fc1ccc(OC[C@H]2CNCCO2)c2c1CCCN2` [Example 2α, R-5-fluoro-8-(2-morpholinylmethoxy)-1,2,3,4-tetrahydroquinoline monomethanesulphonate], which ratio of mean effective p.o. to i.p. dose [5] is on record?
Answer: 1.77

Question: Which results are given for `Fc1cc2c(c(OC[C@@H]3CNCCO3)c1)NCCC2` [Example 1β, S-6-fluoro-8-(2-morpholinylmethoxy)-1,2,3,4-tetrahydroquinoline monomethanesulphonate]?
Answer: increase in the survival time (mice [1]; 3 μmols/kg i.p.): +21%; increase in the survival time (mice [1]; 9 μmols/kg i.p.): +42%; increase in the survival time (mice [1]; 30 μmols/kg i.p.): +62%; increase in the survival time (mice [1]; 90 μmols/kg i.p.): +108%; inhibition of the reuptake of NAD [3]: -55.4%

Question: Which “increase in the survival time” value (mice [1]; 3 μmols/kg i.p.) does the source give for `Fc1ccc(OC[C@@H]2CNCCO2)c2c1CCCN2` [Example 2β, S-5-fluoro-8-(2-morpholinylmethoxy)-1,2,3,4-tetrahydroquinoline monomethanesulphonate] here?
Answer: 21%

Question: What about the “change … with barbital” value (mice [2]) of the same molecule?
Answer: 40%

Question: And the “inhibition of the reuptake of NAD” value [3]?
Answer: -58.9%

Question: What about the “change in duration of narcosis induced with hexobarbital” value (mice [8]) of the same molecule?
Answer: +20%

Question: What about the “inhibiting effect vis-a-vis hypothermia” value (mice [7]; 3 μmols/kg) of the same molecule?
Answer: -16%

Question: What about the “inhibiting effect vis-a-vis hypothermia” value (mice [7]; 9 μmols/kg) of the same molecule?
Answer: -21%

Question: For `CS(=O)(=O)O.Fc1cc2c(c(OC[C@H]3CNCCO3)c1)NCCC2` [Example 1α, R-6-fluoro-8-(2-morpholinylmethoxy)-1,2,3,4-tetrahydroquinoline monomethanesulphonate], which “increase in the survival time” value (mice [1]; 9 μmols/kg i.p.) is on record?
Answer: +37%

Question: And the “increase in the survival time” value (mice [1]; 30 μmols/kg i.p.)?
Answer: +55%

Question: What about the “increase in the survival time” value (mice [1]; 90 μmols/kg i.p.) of the same molecule?
Answer: +114%

Question: What about the “increase in the survival time” value (mice [4]; 9 μmols/kg orally) of the same molecule?
Answer: 37%

Question: And the ratio of mean effective p.o. to i.p. dose [5]?
Answer: 3.16

Question: For `Fc1ccc(OCC2CNCCO2)c2c1CCCN2` (racemic) [Example 2, R,S-5-fluoro-8-(2-morpholinylmethoxy)-1,2,3,4-tetrahydroquinoline], which “inhibiting effect vis-a-vis hypothermia” value (mice [7]; 9 μmols/kg) is on record?
Answer: -29%

— patent publication US5026701A, “Morpholine compounds, compositions and use” (Adir et Compagnie, priority 1989, dated 1991)
